{
  "source": "patent US6051685A",
  "about": "“Peptide derivatives” (Daiichi Pharmaceuticals Co., Ltd., priority 1994, dated 2000)",
  "origin": "cited, not measured here",
  "key": {"[1]": {"conditions": "in vivo"}, "[2]": {"conditions": "intraventricular administration"}},
  "data": [
    {"smiles": "C[C@@H](NC(=O)[C@@H](N)Cc1ccc(O)cc1)C(=O)N[C@@H](Cc1ccccc1)C(=O)NCC(=O)N[C@@H](Cc1ccc(O)cc1)C(=O)N1CCC[C@H]1C(=O)N[C@@H](CO)C(N)=O", "note": "[Delmorfine, Dermorphin]", "values": [
      {"measurement": "stability in living bodies", "setting": "[1]", "value": "relatively stable in living bodies"},
      {"measurement": "analgesic effect relative to morphine", "setting": "[2]", "value": "about 1,000 fold"}
    ]}
  ]
}
